# Assay results reported in US10413505B1, “Pharmaceutical compositions and methods of using the same” (priority 2017, dated 2019).
# Marks after values point to notes of the source that are not given here.
# What was measured:
# [1] = Example 1 single-dose plasma pharmacokinetics after intranasal administration; assay type: in vivo, human; conditions: healthy subjects; single intranasal 160 mg cocaine HCl; plasma, >12 h after dosing
# Method: Single-dose plasma and urinary pharmacokinetics of the pharmaceutical composition following intranasal administration was characterized in this study. This was a single-dose study in 30 healthy volunteers. The objective of the study was to examine the systemic pharmacokinetics of the pharmaceutical composition following acute, topical intranasal administration.
# A single dose of a pharmaceutical composition was administered to both nostrils using cottonoid pledgets. […] Each pledget absorbed approximately 1 mL of pharmaceutical composition (i.e., 40 mg cocaine hydrochloride). Two soaked pledgets were placed into each nasal cavity of the subject and against the anterior septum for 20 minutes; thus, a total dose of 160 mg of cocaine hydrochloride was administered.
# Blood samples were collected pre-dose (30 minutes before pledget insertion), and 7.5, 15, 20, 30, 45, 60, 75, 90, and 105 minutes and 2, 3, 4, 6, 8, 10, and 12 hours from the start of application of the pharmaceutical composition.
# The effect of gender on Cmax, Tmax, AUClast, AUCinf, and t1/2 was determined. The effects of age, body weight, and BMI on AUClast were determined.
# [2] = Example 3 urinary pharmacokinetics, normal hepatic function vs hepatic impairment; assay type: in vivo, human; conditions: for Urine Recovery as % of Dose, Geomean / Urine Recovery as % of Dose, Mean: 0-32 h, single intranasal dose; for CLr Geomean / CLr Mean: Table 26
# Method: Urine was collected prior to dosing and from 0-2, 2-4, 4-8, 8-12, 12-24, and 24-32 hours after beginning of dose application. […] Urinary pharmacokinetic parameters included total urinary recovery (μg), urinary recovery as a percentage of dose, and CLr.
# [3] = Example 2 plasma pharmacokinetics, normal renal function vs severe renal impairment; conditions: single intranasal 160 mg cocaine HCl, plasma
# [4] = normal hepatic function, single intranasal 160 mg cocaine HCl
# [5] = subjects with hepatic impairment
# [6] = subjects with hepatic impairment, 32 hours post administration
# [7] = subjects with hepatic impairment, Table 30
# [8] = subjects with normal hepatic function
compound,measurement,setting,value
"COC(=O)[C@@H]1[C@H]2CC[C@@H](C[C@@H]1O)N2C [EME, ecgonine methyl ester]",plasma level not exceeded (metabolite not detectable in plasma),[1],≤ 50 ng/mL
same,"Urine Recovery as % of Dose, Geomean",[2]; Impaired hepatic function,2.43 % of Dose
same,"Urine Recovery as % of Dose, Mean",[2]; Impaired hepatic function,3.51 % of Dose
same,CLr Geomean,[2]; Impaired hepatic function,10.2 L/h
same,CLr Mean,[2]; Impaired hepatic function,10.9 L/h
same,"Urine Recovery as % of Dose, Geomean",[2]; Normal hepatic function,0.93 % of Dose
same,"Urine Recovery as % of Dose, Mean",[2]; Normal hepatic function,1.12 % of Dose
same,CLr Geomean,[2]; Normal hepatic function,14.6 L/h
same,CLr Mean,[2]; Normal hepatic function,17.2^d L/h
same,0-32 h Urinary Recovery (geometric mean),[2]; [4],875.2 µg
same,0-32 h Urinary Recovery (mean),[2]; [4],1048.23 µg
same,0-32 h Urinary Recovery (median),[2]; [4],1164.3 µg
same,"Renal Clearance, geometric mean",[2]; [5],169.75 mL/min
same,"Renal Clearance, mean",[2]; [5],181.23 mL/min
same,"Renal Clearance, median",[2]; [5],160.92 mL/min
same,0-32 h Urinary Recovery (geometric mean),[2]; [6],2278.1 µg
same,0-32 h Urinary Recovery (mean),[2]; [6],3294 µg
same,0-32 h Urinary Recovery (median),[2]; [6],2249.7 µg
same,"Renal Clearance, geometric mean",[2]; [7],169.753 mL/min
same,"Renal Clearance, mean",[2]; [7],181.233 mL/min
same,"Renal Clearance, median",[2]; [7],160.92 mL/min
same,"Renal Clearance, geometric mean",[2]; [8],243.011 mL/min
same,"Renal Clearance, mean",[2]; [8],286.128 mL/min
same,"Renal Clearance, median",[2]; [8],219.782 mL/min
same,AUC0→t (Geometric mean),[3]; normal renal function,41.8 ng·h/mL
same,AUC0→t (Max),[3]; normal renal function,231 ng·h/mL
same,AUC0→t (Mean),[3]; normal renal function,64.0 ng·h/mL
same,AUC0→t (Median),[3]; normal renal function,46.3 ng·h/mL
same,AUC0→t (Min),[3]; normal renal function,9.3 ng·h/mL
same,AUC0→∞ (Geometric mean),[3]; normal renal function,79.3 ng·h/mL
same,AUC0→∞ (Max),[3]; normal renal function,241 ng·h/mL
same,AUC0→∞ (Mean),[3]; normal renal function,94.5 ng·h/mL
same,AUC0→∞ (Median),[3]; normal renal function,66.8 ng·h/mL
same,AUC0→∞ (Min),[3]; normal renal function,44.4 ng·h/mL
same,Clast (Geometric mean),[3]; normal renal function,1.505 ng/mL
same,Clast (Max),[3]; normal renal function,2.58 ng/mL
same,Clast (Mean),[3]; normal renal function,1.583 ng/mL
same,Clast (Median),[3]; normal renal function,1.42 ng/mL
same,Clast (Min),[3]; normal renal function,1.070 ng/mL
same,Cmax (Geometric mean),[3]; normal renal function,5.8 ng/mL
same,Cmax (Max),[3]; normal renal function,19.2 ng/mL
same,Cmax (Mean),[3]; normal renal function,7.5 ng/mL
same,Cmax (Min),[3]; normal renal function,1.8 ng/mL
same,Tlast (Geometric mean),[3]; normal renal function,12.3 h
same,Tlast (Max),[3]; normal renal function,32.0 h
same,Tlast (Mean),[3]; normal renal function,13.5 h
same,Tlast (Median),[3]; normal renal function,12.0 h
same,Tlast (Min),[3]; normal renal function,480 min
same,Tmax (Geometric mean),[3]; normal renal function,2.196 h
same,Tmax (Max),[3]; normal renal function,4.00 h
same,Tmax (Mean),[3]; normal renal function,2.698 h
same,Tmax (Median),[3]; normal renal function,3.0 h
same,Tmax (Min),[3]; normal renal function,20 min
same,t1/2 (Geometric mean),[3]; normal renal function,5.02 h
same,t1/2 (Max),[3]; normal renal function,6.67 h
same,t1/2 (Mean),[3]; normal renal function,5.12 h
same,t1/2 (Median),[3]; normal renal function,5.53 h
same,t1/2 (Min),[3]; normal renal function,217 min
same,AUC0→t (Geometric mean),[3]; severe renal impairment,180.2 ng·h/mL
same,AUC0→t (Max),[3]; severe renal impairment,382 ng·h/mL
same,AUC0→t (Mean),[3]; severe renal impairment,201.1 ng·h/mL
same,AUC0→t (Median),[3]; severe renal impairment,196 ng·h/mL
same,AUC0→t (Min),[3]; severe renal impairment,61.0 ng·h/mL
same,AUC0→∞ (Geometric mean),[3]; severe renal impairment,244.5 ng·h/mL
same,AUC0→∞ (Max),[3]; severe renal impairment,527 ng·h/mL
same,AUC0→∞ (Mean),[3]; severe renal impairment,267.5 ng·h/mL
same,AUC0→∞ (Median),[3]; severe renal impairment,242 ng·h/mL
same,AUC0→∞ (Min),[3]; severe renal impairment,143.9 ng·h/mL
same,Clast (Geometric mean),[3]; severe renal impairment,2.218 ng/mL
same,Clast (Max),[3]; severe renal impairment,5.85 ng/mL
same,Clast (Mean),[3]; severe renal impairment,2.46 ng/mL
same,Clast (Median),[3]; severe renal impairment,1.93 ng/mL
same,Clast (Min),[3]; severe renal impairment,1.51 ng/mL
same,Cmax (Geometric mean),[3]; severe renal impairment,10.3 ng/mL
same,Cmax (Max),[3]; severe renal impairment,20.5 ng/mL
same,Cmax (Mean),[3]; severe renal impairment,11.9 ng/mL
same,Cmax (Median),[3]; severe renal impairment,11.5 ng/mL
same,Cmax (Min),[3]; severe renal impairment,3.2 ng/mL
same,Tlast (Geometric mean),[3]; severe renal impairment,31.5 h
same,Tlast (Max),[3]; severe renal impairment,32.0 h
same,Tlast (Mean),[3]; severe renal impairment,31.5 h
same,Tlast (Median),[3]; severe renal impairment,32.0 h
same,Tlast (Min),[3]; severe renal impairment,1680 min
same,Tmax (Geometric mean),[3]; severe renal impairment,3.715 h
same,Tmax (Max),[3]; severe renal impairment,12.00 h
same,Tmax (Mean),[3]; severe renal impairment,4.53 h
same,Tmax (Median),[3]; severe renal impairment,4.00 h
same,Tmax (Min),[3]; severe renal impairment,90 min
same,t1/2 (Geometric mean),[3]; severe renal impairment,13.16 h
same,t1/2 (Max),[3]; severe renal impairment,25.70 h
same,t1/2 (Mean),[3]; severe renal impairment,13.97 h
same,t1/2 (Median),[3]; severe renal impairment,12.27 h
same,t1/2 (Min),[3]; severe renal impairment,488 min
